Measurements: patent US9695155B2, “Herbicidal substituted pyrimidinyloxy benzene compounds” (E. I. DU PONT DE NEMOURS AND COMPANY, priority 2013, dated 2017)

Assays:
galium = test: Test D preemergence; format: in vivo, Galium aparine; conditions: Galium, pre-emergence
Outline: (§1)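 Species were sown in silt loam for preemergence treatment, or grown in peat-based medium to the 1–4-leaf stage (2–18 cm) for postemergence sprays. Test chemicals were formulated in a non-phytotoxic solvent mixture with surfactant. After 7–21 days in a controlled environment, plants were rated visually against controls on a 0 (no effect) to 100 (complete control) scale.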

chickweed = test: Test D postemergence; format: in vivo, Stellaria media; conditions: Stellaria media, post-emergence
Outline: as §1

waterhemp = test: Test E postemergence; format: in vivo, Amaranthus rudis; conditions: Amaranthus tuberculatus, post-emergence, read-out: Plant response rating, Waterhemp
Outline: (§2)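 Test chemicals formulated in a non-phytotoxic solvent mixture containing a surfactant were applied preemergence to seeds in silt loam soil or postemergence to plants at the 1- to 4-leaf stage in potting mix. After 14 to 21 days in a greenhouse, injury was visually rated against controls on a 0-100 scale (0 = no effect, 100 = complete control).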

[1] = tested on: waterhemp_RES2 (ALS & HPPD resistant common waterhemp); test: Test E postemergence; format: in vivo, Amaranthus rudis; conditions: Amaranthus tuberculatus, post-emergence, read-out: Plant response rating, Waterhemp_RES2
Outline: as §2

green foxtail = test: Test D preemergence; format: in vivo, Setaria viridis; conditions: Setaria viridis, pre-emergence
Outline: as §1

canarygrass = test: Test D preemergence; format: in vivo, Phalaris minor; conditions: Phalaris minor, pre-emergence
Outline: as §1

speedwell = test: Test D postemergence; format: in vivo, Veronica persica; conditions: Veronica persica, post-emergence
Outline: as §1

winter barley = test: Test D postemergence; format: in vivo, Hordeum vulgare; conditions: Hordeum vulgare, post-emergence, Postemergence, scale 0 to 100 (0 no effect, 100 complete control), read-out: Plant response rating, Barley, Winter
Outline: as §1

spring barley = test: Test D postemergence; format: in vivo, Hordeum vulgare; conditions: Hordeum vulgare, post-emergence, Postemergence, scale 0 to 100 (0 no effect, 100 complete control), read-out: Plant response rating, Barley, Spring
Outline: as §1

chamomile = test: Test D postemergence; format: in vivo, Matricaria inodora; conditions: Tripleurospermum inodorum, post-emergence
Outline: as §1

pigweed = test: Test D preemergence; format: in vivo, Amaranthus retroflexus; conditions: Amaranthus retroflexus, pre-emergence
Outline: as §1

barnyardgrass = test: Test E postemergence; format: in vivo, Echinochloa crus-galli; conditions: Echinochloa crus-galli, post-emergence, read-out: Plant response rating, Barnyardgrass
Outline: as §2

windgrass = test: Test D preemergence; format: in vivo, Apera spica-venti; conditions: Apera spica-venti, pre-emergence
Outline: as §1

[2] = Postemergence, 31 g ai/ha, scale 0 to 100
[3] = Postemergence, 62 g ai/ha, scale 0 to 100
[4] = Postemergence, 125 g ai/ha, scale 0 to 100
[5] = postemergence, 8 g ai/ha, scale 0 to 100, 0 no effect, 100 complete control
[6] = postemergence, 16 g ai/ha, scale 0 to 100, 0 no effect, 100 complete control

Work on `Clc1cnc(Oc2ccccc2-n2cc(Br)cn2)nc1` [Compound 7, 2-[2-(4-bromo-1H-pyrazol-1-yl)phenoxy]-5-chloropyrimidine] yielded a pest or weed control at 16 g/ha (galium; 16 g ai/ha, scale 0 (no effect) to 100 (complete control), read-out: Plant response rating, Galium) of 0%, a pest or weed control at 31 g/ha (galium; 31 g ai/ha, scale 0-100, read-out: Plant response rating, Galium) of 0% and a pest or weed control at 62 g/ha (galium; 62 g ai/ha, scale 0-100, read-out: Plant response rating, Galium) of 20%. For the same compound, the pest or weed control at 125 g/ha (galium; 125 g ai/ha, scale 0-100, read-out: Plant response rating, Galium) was 30%, the pest or weed control at 250 g/ha (galium; 250 g ai/ha, scale 0-100, read-out: Plant response rating, Galium) was 40% and the pest or weed control at 16 g/ha (chickweed; 16 g ai/ha, scale 0-100, read-out: Plant response rating, Chickweed) was 10%. The pest or weed control at 31 g/ha (chickweed; 31 g ai/ha, scale 0 to 100 (0 no effect, 100 complete control), read-out: Plant response rating, Chickweed) was 10%, the pest or weed control at 62 g/ha (chickweed; 62 g ai/ha, scale 0 to 100 (0 no effect, 100 complete control), read-out: Plant response rating, Chickweed) was 20% and the pest or weed control at 125 g/ha (chickweed; 125 g ai/ha, scale 0 to 100 (0 no effect, 100 complete control), read-out: Plant response rating, Chickweed) was 60%. For the same compound, the pest or weed control at 250 g/ha (chickweed; 250 g ai/ha, scale 0 to 100 (0 no effect, 100 complete control), read-out: Plant response rating, Chickweed) was 80%, the pest or weed control at 31 g/ha (waterhemp; [2]) was 90% and the pest or weed control at 62 g/ha (waterhemp; [3]) was 90%. The pest or weed control at 125 g/ha (waterhemp; [4]) was 90%, the pest or weed control at 8 g/ha (waterhemp; [5]) was 70% and the pest or weed control at 16 g/ha (waterhemp; [6]) was 80%. For the same compound, the pest or weed control at 31 g/ha [1, 2] was 80%, the pest or weed control at 62 g/ha [1, 3] was 90% and the pest or weed control at 125 g/ha [1, 4] was 95%. The pest or weed control at 16 g/ha [1, 6] was 75%, the pest or weed control at 16 g/ha (green foxtail; 16 g ai/ha, scale 0 (no effect) to 100 (complete control), read-out: Plant response rating, Foxtail, Green) was 0% and the pest or weed control at 31 g/ha (green foxtail; 31 g ai/ha, scale 0-100, read-out: Plant response rating, Foxtail, Green) was 0%. The pest or weed control at 62 g/ha (green foxtail; 62 g ai/ha, scale 0-100, read-out: Plant response rating, Foxtail, Green) was 0%, the pest or weed control at 125 g/ha (green foxtail; 125 g ai/ha, scale 0-100, read-out: Plant response rating, Foxtail, Green) was 0% and the pest or weed control at 250 g/ha (green foxtail; 250 g ai/ha, scale 0-100, read-out: Plant response rating, Foxtail, Green) was 20%. For the same compound, the pest or weed control at 16 g/ha (canarygrass; 16 g ai/ha, scale 0 (no effect) to 100 (complete control), read-out: Plant response rating, Canarygrass) was 0%, the pest or weed control at 31 g/ha (canarygrass; 31 g ai/ha, scale 0-100, read-out: Plant response rating, Canarygrass) was 0% and the pest or weed control at 62 g/ha (canarygrass; 62 g ai/ha, scale 0-100, read-out: Plant response rating, Canarygrass) was 0%. The pest or weed control at 125 g/ha (canarygrass; 125 g ai/ha, scale 0-100, read-out: Plant response rating, Canarygrass) was 0%, the pest or weed control at 250 g/ha (canarygrass; 250 g ai/ha, scale 0-100, read-out: Plant response rating, Canarygrass) was 25% and the pest or weed control at 16 g/ha (speedwell; 16 g ai/ha, scale 0-100, read-out: Plant response rating, Speedwell) was 30%. It also gave a pest or weed control at 31 g/ha (speedwell; 31 g ai/ha, scale 0 to 100 (0 no effect, 100 complete control), read-out: Plant response rating, Speedwell) of 70%, a pest or weed control at 62 g/ha (speedwell; 62 g ai/ha, scale 0 to 100 (0 no effect, 100 complete control), read-out: Plant response rating, Speedwell) of 100% and a pest or weed control at 125 g/ha (speedwell; 125 g ai/ha, scale 0 to 100 (0 no effect, 100 complete control), read-out: Plant response rating, Speedwell) of 100%. It also gave a pest or weed control at 250 g/ha (speedwell; 250 g ai/ha, scale 0 to 100 (0 no effect, 100 complete control), read-out: Plant response rating, Speedwell) of 100%, a plant injury at 16 g/ha (winter barley; 16 g ai/ha) of 0% and a plant injury at 31 g/ha (winter barley; 31 g ai/ha) of 0%. It also gave a plant injury at 62 g/ha (winter barley; 62 g ai/ha) of 0%, a plant injury at 125 g/ha (winter barley; 125 g ai/ha) of 0% and a plant injury at 250 g/ha (winter barley; 250 g ai/ha) of 0%. For the same compound, the plant injury at 16 g/ha (spring barley; 16 g ai/ha) was 0%, the plant injury at 31 g/ha (spring barley; 31 g ai/ha) was 0% and the plant injury at 62 g/ha (spring barley; 62 g ai/ha) was 0%. For the same compound, the plant injury at 125 g/ha (spring barley; 125 g ai/ha) was 5%, the plant injury at 250 g/ha (spring barley; 250 g ai/ha) was 5% and the pest or weed control at 16 g/ha (chamomile; 16 g ai/ha, scale 0-100, read-out: Plant response rating, Chamomile) was 0%. For the same compound, the pest or weed control at 31 g/ha (chamomile; 31 g ai/ha, scale 0 to 100 (0 no effect, 100 complete control), read-out: Plant response rating, Chamomile) was 0%, the pest or weed control at 62 g/ha (chamomile; 62 g ai/ha, scale 0 to 100 (0 no effect, 100 complete control), read-out: Plant response rating, Chamomile) was 0% and the pest or weed control at 125 g/ha (chamomile; 125 g ai/ha, scale 0 to 100 (0 no effect, 100 complete control), read-out: Plant response rating, Chamomile) was 0%. The pest or weed control at 250 g/ha (chamomile; 250 g ai/ha, scale 0 to 100 (0 no effect, 100 complete control), read-out: Plant response rating, Chamomile) was 0%, the pest or weed control at 16 g/ha (pigweed; 16 g ai/ha, scale 0 (no effect) to 100 (complete control), read-out: Plant response rating, Pigweed) was 0% and the pest or weed control at 31 g/ha (pigweed; 31 g ai/ha, scale 0 (no effect) to 100 (complete control), read-out: Plant response rating, Pigweed) was 30%. For the same compound, the pest or weed control at 62 g/ha (pigweed; 62 g ai/ha, scale 0-100, read-out: Plant response rating, Pigweed) was 90%, the pest or weed control at 125 g/ha (pigweed; 125 g ai/ha, scale 0-100, read-out: Plant response rating, Pigweed) was 90% and the pest or weed control at 250 g/ha (pigweed; 250 g ai/ha, scale 0-100, read-out: Plant response rating, Pigweed) was 90%. The pest or weed control at 31 g/ha (barnyardgrass; [2]) was 0%, the pest or weed control at 62 g/ha (barnyardgrass; [3]) was 10% and the pest or weed control at 125 g/ha (barnyardgrass; [4]) was 10%. For the same compound, the pest or weed control at 8 g/ha (barnyardgrass; [5]) was 0%, the pest or weed control at 16 g/ha (barnyardgrass; [6]) was 0% and the pest or weed control at 16 g/ha (windgrass; 16 g ai/ha, scale 0 (no effect) to 100 (complete control), read-out: Plant response rating, Windgrass) was 0%. The pest or weed control at 31 g/ha (windgrass; 31 g ai/ha, scale 0 (no effect) to 100 (complete control), read-out: Plant response rating, Windgrass) was 0%, the pest or weed control at 62 g/ha (windgrass; 62 g ai/ha, scale 0-100, read-out: Plant response rating, Windgrass) was 0% and the pest or weed control at 125 g/ha (windgrass; 125 g ai/ha, scale 0-100, read-out: Plant response rating, Windgrass) was 0%. For the same compound, the pest or weed control at 250 g/ha (windgrass; 250 g ai/ha, scale 0-100, read-out: Plant response rating, Windgrass) was 30%.
